The results in this text go back to patent US12263155B2, “Combinations of monoamine oxidase inhibitors and serotonin receptor agonists and their therapeutic use” (Remedi, Inc., priority 2022, dated 2025).

For one assay, the target named is T1, rat liver MAO-B (Rattus norvegicus, UniProt P19643).
T1 construct: from tissue; host or cells: rat liver
T1 sequence (P19643 1-520): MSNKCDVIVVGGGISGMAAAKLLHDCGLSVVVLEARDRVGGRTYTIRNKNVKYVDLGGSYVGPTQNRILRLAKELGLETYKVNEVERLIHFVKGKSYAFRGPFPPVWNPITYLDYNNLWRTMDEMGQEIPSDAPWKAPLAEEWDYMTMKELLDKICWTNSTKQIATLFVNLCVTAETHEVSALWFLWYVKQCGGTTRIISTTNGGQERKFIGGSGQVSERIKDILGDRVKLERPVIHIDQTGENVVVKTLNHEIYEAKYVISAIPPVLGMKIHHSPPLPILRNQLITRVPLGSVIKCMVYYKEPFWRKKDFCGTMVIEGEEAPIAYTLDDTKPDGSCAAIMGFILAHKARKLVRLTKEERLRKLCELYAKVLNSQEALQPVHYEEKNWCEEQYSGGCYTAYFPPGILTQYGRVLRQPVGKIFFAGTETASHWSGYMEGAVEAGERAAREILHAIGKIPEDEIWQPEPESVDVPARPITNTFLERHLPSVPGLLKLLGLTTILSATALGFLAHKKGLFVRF
Kind of assay: In vitro inhibition of rat liver MAO-B. The assay is classed as biochemical. Conditions: 10 μM [14C]-PEA. On the procedure:
Methods: The soluble extract of the mitochondrial enriched fraction (P2 pellet), which was prepared from brain homogenates of male Sprague-Dawley rats, served as the source of MAO-A enzymatic activity. The P2 fraction was prepared and was stored frozen until being thawed for use on the day of assay. Final concentrations of 50 μM [^14C]-serotonin (5-HT) and 10 μM [^14C]-phenylethylamine (PEA) were employed as specific substrates for MAO-A and MAO-B, respectively. Test compound inhibition was based on competition for oxidation of these radio-labeled substrates. MAO-A assay specificity was enhanced by inclusion of 0.1 μM deprenyl to prevent substrate oxidation by MAO-B. Likewise, MAO-B assays included 0.1 μM clorgyline to block MAO-A activity. […] Inhibition of enzymatic activities was expressed as IC50 and as the Ki, which was calculated using the Cheng-Prusoff equation.

Assay [1] addresses T2, MAO-A from human brain striatum (Homo sapiens, UniProt P21397).
T2 construct: homogenates of a post-mortem sample of the human brain striatum, served as the source of MAO-A enzymatic activity; from tissue; host or cells: human brain striatum, post-mortem (P2 mitochondrial-enriched fraction)
T2 sequence (P21397 1-527): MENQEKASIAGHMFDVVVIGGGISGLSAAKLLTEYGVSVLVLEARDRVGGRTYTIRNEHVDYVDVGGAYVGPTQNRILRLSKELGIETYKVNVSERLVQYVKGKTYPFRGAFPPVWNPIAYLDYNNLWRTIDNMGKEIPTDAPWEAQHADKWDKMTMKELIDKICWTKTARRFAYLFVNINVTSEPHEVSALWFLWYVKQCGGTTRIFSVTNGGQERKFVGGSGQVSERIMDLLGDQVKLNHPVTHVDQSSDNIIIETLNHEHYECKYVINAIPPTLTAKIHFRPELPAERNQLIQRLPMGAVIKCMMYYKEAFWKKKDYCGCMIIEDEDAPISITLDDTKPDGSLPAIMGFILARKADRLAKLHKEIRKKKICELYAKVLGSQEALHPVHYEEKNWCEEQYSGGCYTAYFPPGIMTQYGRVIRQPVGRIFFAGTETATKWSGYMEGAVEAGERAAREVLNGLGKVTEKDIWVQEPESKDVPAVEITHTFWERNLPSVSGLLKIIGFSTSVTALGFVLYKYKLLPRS
Kind of assay: Inhibitory kinetics of human brain striatum MAO-A. The assay is classed as biochemical. Conditions: for Vmax: [14C]-5-HT substrate. The method, then: Methods: The soluble extract of the mitochondrial enriched fraction (P2 pellet), which was prepared from homogenates of a post-mortem sample of the human brain striatum, served as the source of MAO-A enzymatic activity for this assay. After preparation, the P2 fraction was stored frozen until it was thawed for use on the day of assay. […] The MAO-A assay specificity was enhanced by inclusion of 0.1 μM deprenyl to prevent substrate oxidation by MAO-B. The CX157 competition for MAO-A activity was measured using either 1.0 nM or 5.0 nM CX157 against the 2 log unit concentration range of [^14C]-5-HT. The reference standard, RO 41-1049, was tested at 10 μM. Deprenyl (0.1 μM) was included in all MAO-A assays to prevent any potential for MAO-B mediated oxidation of the [^14C]-5-HT substrate. […] The MAO-A assays were performed using CX157 at concentrations of 0 nM (as a positive control), 1 nM and 5 nM. The Km and Vmax values were calculated from Lineweaver-Burke plots.

A short description of assay [2]: Exemplary administration of CX157, DMT and combinations: subjective effects. The assay is classed as in vivo. As to conditions: 175 mg CX157 alone. The method, then: Administration Example 1: Subjects are administered 175 mg CX157 alone.
Administration Example 2: Subjects are administered 25 mg, 37.5 mg, 50 mg, 75 mg, or 100 mg DMT freebase in a capsule.
Administration Example 3: Subjects are administered 175 mg CX157, and then from between 2-3 hours later, such as at 2 hours 40 minutes later, a dose of 0.03 mg/kg, 0.05 mg/kg, or 0.07 mg/kg DMT freebase in capsule. Alternatively, subjects are administered a capsule containing 2.5 mg, 3.75 mg, 5 mg, 7.5 mg, 10 mg, 12.5 mg, 15 mg, 17.5 mg, or 20 mg DMT freebase.
Administration Example 4: Subjects are administered 175 mg CX157, and then from between 2-3 hours later, such as at 2 hours 15 minutes later, a dose of 0.2 mg/kg, 0.4 mg/kg, or 0.6 mg/kg DMT freebase in capsule. Alternatively, subjects are administered a capsule containing 25 mg, 37.5 mg, 50 mg, 75 mg, 100 mg, 125 mg, 150 mg, 175 mg, or 200 mg DMT freebase. At lower doses of DMT, subjects report effects that are relaxing, comforting, and “warm,” and describe mildly mood-elevating and anxiolytic properties. […]

The structures appear in SMILES notation.

For the compound `O=S1(=O)c2ccc(F)cc2Oc2cc(OCC(F)(F)F)ccc21` [CX157, 3-fluoro-7(2,2,2-trifluorethoxy)phenoxathiine-10,10-dioxide], the “inhibition of rat liver MAO-B” value against rat liver MAO-B is “did not inhibit”. Besides, in assay [1] (5.0 nM CX157), the “increase of Km of the enzyme for [14C]-5-HT” value is given as 34.6%. The Vmax in assay [1] (1 nM CX157) is given as 50777; in assay [1] (5 nM CX157), 59161. Besides, the “mode of MAO-A inhibition” value in assay [1] (human brain striatum) is reported as “competitive inhibitor”. In addition, in assay [1] (human brain striatum homogenate, from plot of Km values), the affinity corresponds to a Ki of 10 nM. Also, the antidepressant activity entry in assay [2] is reported as “no significant antidepressant activity”.

Usually Ki stands for a measure of affinity in units of concentration, obtained from inhibition or displacement. Lower therefore signals a stronger hold on the target.
